Experimental data published in publication PMC7781311 (bioRxiv, 2021).
Starred links: 1 amine or outer side, 2 acyl side, 3 side chain; linkers in the order of their positions; H or OH if unused. Residues, ends and D or L forms follow the SMILES beside them. CO = O=C([*:1])[*:2]

These compounds were tested on SARS-CoV-2-S pseudotyped particles (PP). Details: not given.
Type: cell-based
`CCOC(=O)c1ccc(OC(=O)CCCCCNC(=N)N)cc1` [NCGC00025297, Gabexate] was tested, and the “SARS-2 PP Efficacy” value was 0%.
With `N=C(N)c1ccc2cc(OC(=O)c3ccc(N=C(N)N)cc3)ccc2c1` [NCGC00160398, Nafamostat] the “SARS-2 PP Efficacy” value was 100%.
For `CN(C)C(=O)COC(=O)Cc1ccc(OC(=O)c2ccc(NC(=N)N)cc2)cc1` [NCGC00167526, Camostat], the “SARS-2 PP Efficacy” value was 100%.
`COC(=O)[C@H](Cc1cccc(C(=N)N)c1)[C@@H](C)NC(=O)c1ccc(-c2cc[n+]([O-])cc2)cc1` [NCGC00378763, Otamixaban] was tested, and the “SARS-2 PP Efficacy” value was 50%.
For `N=C(N)c1ccc2nc(-c3cc(CC(=O)N[C@@H](CC(=O)O)C(=O)O)cc(-c4cc(S(N)(=O)=O)ccc4O)c3O)[nH]c2c1` [NCGC00387860, PCI-27483], the “SARS-2 PP Efficacy” value was “about 60%”.
`CC(C)[C@H](NC(=O)[C@H](CCCNC(=N)N)NC(=O)N[C@@H](Cc1ccccc1)C(=O)O)C(=O)N[C@H](C=O)CCCNC(=N)N` [NCGC00390338, Antipain] ({Phe-CO}-Arg-Val-Arg-aldehyde) was tested, and the “SARS-2 PP Efficacy” value was “about 60%”.

Same assay, conditions: listed as otamixaban
For `COC(=O)[C@H](Cc1cccc(C(=N)N)c1)[C@@H](C)NC(=O)c1ccc(-c2cc[n+]([O-])cc2)cc1` [NCGC00378763, Otamixaban], the “SARS-2 PP Efficacy” value was “about 50%”.
